Measured values: publication PMC6979384, “Characterization of the plant homeodomain (PHD) reader family for their histone tail interactions” (Epigenetics & Chromatin, 2020)

What was measured:
Assay in all cases: Histone peptide microarray
Assay type in all cases: binding, human
AIRE (PP) = conditions: GST-tagged AIRE (PP); sheet Array Heatmap; each array performed twice, total n = 4
How it was run: (§1)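 GST-tagged PHD finger readers were expressed, purified and applied at 0.5 μM to a microarray of 293 synthetic histone peptides carrying single or combinatorial PTMs, using an optimized protocol. Binding signals are averages with standard deviation from 4 replicates.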

BAZ2B = conditions: GST-tagged BAZ2B; sheet Array Heatmap; each array performed twice, total n = 4
How it was run: as §1

BPTF (PB) = conditions: GST-tagged BPTF (PB = PHD + Bromodomain); sheet Array Heatmap; each array performed twice, total n = 4
How it was run: as §1

CHD4 (PPCC) = conditions: for Array Heatmap signal (histone peptide microarray): GST-tagged CHD4 (PPCC = Dual PHD + Dual Chromodomain), sheet Array Heatmap, each array performed twice, total n = 4
How it was run: as §1

CHD5 (PCC) = conditions: GST-tagged CHD5 (PCC = PHD + Dual Chromodomain); sheet Array Heatmap; each array performed twice, total n = 4
How it was run: as §1

CHD5 (PPCC) = conditions: GST-tagged CHD5 (PPCC = Dual PHD + Dual Chromodomain); sheet Array Heatmap; each array performed twice, total n = 4
How it was run: as §1

DIDO1 = conditions: GST-tagged DIDO1; sheet Array Heatmap; each array performed twice, total n = 4
How it was run: as §1

DPF2 (PPC2W2) = conditions: GST-tagged DPF2 (PPC2W2 = Dual PHD + C2W2-type Zn-finger); sheet Array Heatmap; each array performed twice, total n = 4
How it was run: as §1

ING1 = conditions: GST-tagged ING1; sheet Array Heatmap; each array performed twice, total n = 4
How it was run: as §1

ING3 = conditions: GST-tagged ING3; sheet Array Heatmap; each array performed twice, total n = 4
How it was run: as §1

ING4 = conditions: GST-tagged ING4; sheet Array Heatmap; each array performed twice, total n = 4
How it was run: as §1

ING5 = conditions: GST-tagged ING5; sheet Array Heatmap; each array performed twice, total n = 4
How it was run: as §1

KDM4C (TTP) = conditions: GST-tagged KDM4C (TTP = Tandem Tudor domain + PHD); sheet Array Heatmap; each array performed twice, total n = 4
How it was run: as §1

KDM5A (1) = conditions: GST-tagged KDM5A (1); sheet Array Heatmap; each array performed twice, total n = 4
How it was run: as §1

KDM5A (3) = conditions: GST-tagged KDM5A (3); sheet Array Heatmap; each array performed twice, total n = 4
How it was run: as §1

KDM5B (1) = conditions: GST-tagged KDM5B (1); sheet Array Heatmap; each array performed twice, total n = 4
How it was run: as §1

KDM5B (3) = conditions: GST-tagged KDM5B (3); sheet Array Heatmap; each array performed twice, total n = 4
How it was run: as §1

PHF13 = conditions: GST-tagged PHF13; sheet Array Heatmap; each array performed twice, total n = 4
How it was run: as §1

PHF23 = conditions: GST-tagged PHF23; sheet Array Heatmap; each array performed twice, total n = 4
How it was run: as §1

PHF2 = conditions: GST-tagged PHF2; sheet Array Heatmap; each array performed twice, total n = 4
How it was run: as §1

PHF8 = conditions: GST-tagged PHF8; sheet Array Heatmap; each array performed twice, total n = 4
How it was run: as §1

PHRF1 (RP) = conditions: GST-tagged PHRF1 (RP); sheet Array Heatmap; each array performed twice, total n = 4
How it was run: as §1

RAG2 = conditions: GST-tagged RAG2; sheet Array Heatmap; each array performed twice, total n = 4
How it was run: as §1

SP140L = conditions: GST-tagged SP140L; sheet Array Heatmap; each array performed twice, total n = 4
How it was run: as §1

TAF3 = conditions: GST-tagged TAF3; sheet Array Heatmap; each array performed twice, total n = 4
How it was run: as §1

TRIM66 (PB) = conditions: GST-tagged TRIM66 (PB = PHD + Bromodomain); sheet Array Heatmap; each array performed twice, total n = 4
How it was run: as §1

| Substance | Array Heatmap signal (histone peptide microarray) (AIRE (PP)) | Array Heatmap signal (histone peptide microarray) (BAZ2B) | Array Heatmap signal (histone peptide microarray) (BPTF (PB)) | Array Heatmap signal (histone peptide microarray) (CHD4 (PPCC)) | Array Heatmap signal (histone peptide microarray) (CHD5 (PCC)) | Array Heatmap signal (histone peptide microarray) (CHD5 (PPCC)) | Array Heatmap signal (histone peptide microarray) (DIDO1) | Array Heatmap signal (histone peptide microarray) (DPF2 (PPC2W2)) | Array Heatmap signal (histone peptide microarray) (ING1) | Array Heatmap signal (histone peptide microarray) (ING3) | Array Heatmap signal (histone peptide microarray) (ING4) | Array Heatmap signal (histone peptide microarray) (ING5) | Array Heatmap signal (histone peptide microarray) (KDM4C (TTP)) | Array Heatmap signal (histone peptide microarray) (KDM5A (1)) | Array Heatmap signal (histone peptide microarray) (KDM5A (3)) | Array Heatmap signal (histone peptide microarray) (KDM5B (1)) | Array Heatmap signal (histone peptide microarray) (KDM5B (3)) | Array Heatmap signal (histone peptide microarray) (PHF13) | Array Heatmap signal (histone peptide microarray) (PHF23) | Array Heatmap signal (histone peptide microarray) (PHF2) | other results |
| --- | --- | --- | --- | --- | --- | --- | --- | --- | --- | --- | --- | --- | --- | --- | --- | --- | --- | --- | --- | --- | --- |
| H3K9me3: H3 1-20 [Peptide H3K9me3] | 0.4645 | 0.4699 | 0.3464 | 0.5917 | 0.824 | 0.5526 | 0.7537 | 0.7027 | 0.5591 | 0.491 | 0.4493 | 0.3535 | 0.4665 | 0.4576 | 0.563 | 0.6712 | 0.5156 | 0.6291 | 0.5665 | 0.5168 | relative binding (CHD4 (PPCC); peptide microarray, reader 0.5 μM, n = 4): no difference in binding; Array Heatmap signal (histone peptide microarray) (PHF8): 0.3233; Array Heatmap signal (histone peptide microarray) (PHRF1 (RP)): 0.7596; Array Heatmap signal (histone peptide microarray) (RAG2): 0.2542; Array Heatmap signal (histone peptide microarray) (SP140L): 0.3305; Array Heatmap signal (histone peptide microarray) (TAF3): 0.2799; Array Heatmap signal (histone peptide microarray) (TRIM66 (PB)): 0.7052 |
| H3S10p: H3 1-20 [Peptide H3S10p] | 0.7118 | 0.5109 | 0.3684 | 0.6003 | 0.8638 | 0.5995 | 0.6622 | 0.7013 | 0.5325 | 0.4878 | 0.4889 | 0.3966 | 0.5402 | 0.5146 | 0.4717 | 0.6981 | 0.5217 | 0.646 | 0.5413 | 0.4863 | Array Heatmap signal (histone peptide microarray) (PHF8): 0.4129; Array Heatmap signal (histone peptide microarray) (PHRF1 (RP)): 0.5714; Array Heatmap signal (histone peptide microarray) (RAG2): 0.2741; Array Heatmap signal (histone peptide microarray) (SP140L): 0.3768; Array Heatmap signal (histone peptide microarray) (TAF3): 0.3504; Array Heatmap signal (histone peptide microarray) (TRIM66 (PB)): 0.7641 |
